Data published in patent US9226919B2, “Methods for dosing an orally active 1,2,4-oxadiazole” (PTC Therapeutics, Inc., priority 2006, dated 2016).
Like-named read-outs stand apart in the source and are kept apart here.

Tests used:
Assay type in all cases: in vivo, human
[1] = tested on: patients with nonsense-mutation-mediated cystic fibrosis; assay: Pulmonary function tests (FEV1, FVC), Phase 2 cystic fibrosis study
Method: Pulmonary function tests, including FEV1, FVC, and MEF25-75, are measured using standard spirometry procedures. Assessments of pulmonary function (including MEF25-75, FVC, and, particularly, FEV1) have been acknowledged as definitive clinical endpoints in patients with CF (Food and Drug Administration, 62nd Anti-Infective Drugs Advisory Committee. Discussion of NDA for tobramycin solution for inhalation (Tobi®) for the management of cystic fibrosis patients. November, 1997; Tiddens, 2002, Pediatr. Pulmonol. 34(3): 228-31). […] Pulmonary function testing is simple to administer (even in patients as young as 7 years of age), and uses standardized equipment and techniques that are widely available. Interpretation is performed using well-established normative equations that account for patient age, height, and gender.
(§1) 3-[5-(2-Fluoro-phenyl)-[1,2,4]oxadiazol-3-yl]-benzoic acid was provided in a formulation described herein.
Clinical endpoints were evaluated using the procedures set forth above. TEPD measurements were made prior to treatment and on days 14 and 28 of Cycle 1 and Cycle 2. Nasal mucosal curettage was collected from each nostril of each patient prior to treatment and on days 14 and 28 of Cycle 1 and Cycle 2. Pulmonary tests, including FEV1, FVC and MEF25-75, were measured prior to treatment, on day −1 of Cycle 2, on day 13 or 14 of Cycle 1 and day 13 or 14 of Cycle 2 in the study being conducted in Israel and the same parameters were measured prior to treatment and on day 13 or 14 of Cycle 2 in the study being conducted in the United States.
(§2) Statistically significant results and positive trends for secondary endpoints were also observed. In particular, although the trials were not been powered to detect statistical significant changes in secondary endpoints, statistically significant improvements from study entry to the end of the higher-dose treatment cycle in the patients' mean FEV1, FVC and weight were observed.

[2] = Plasma pharmacokinetics, Phase 2 Duchenne muscular dystrophy study; settings: for AUC(0-t) / Cmax: human, oral
Text: FIG. 1 provides the plasma 3-[5-(2-fluoro-phenyl)-[1,2,4]oxadiazol-3-yl]-benzoic acid concentration-time profiles and PK parameters from 37 of 38 patients in a Phase 2 Duchenne muscular dystrophy study at 4-, 4-, and 8-mg/kg; 10-, 10-, and 20-mg/kg; and 20-, 20- and 40-mg/kg dose levels. The data from one patient was excluded from analysis due to insufficient data.
3-[5-(2-Fluoro-phenyl)-[1,2,4]oxadiazol-3-yl]-benzoic acid was provided in a formulation described herein. Treatment was administered over 28 days for each treatment cohort. An initial cohort of patients (n=6) were treated daily for 28 days with 3-[5-(2-fluoro-phenyl)-[1,2,4]oxadiazol-3-yl]-benzoic acid at 4-, 4-, and 8-mg/kg TID. After review of the clinical safety results, a second cohort of patients (n=20) were treated daily for 28 days with 3-[5-(2-fluoro-phenyl)-[1,2,4]oxadiazol-3-yl]-benzoic acid at 10-, 10-, and 20-mg/kg TID. Thus, each patient received a total of 84 doses of 3-[5-(2-fluoro-phenyl)-[1,2,4]oxadiazol-3-yl]-benzoic acid.
Blood for 3-[5-(2-fluoro-phenyl)-[1,2,4]oxadiazol-3-yl]-benzoic acid concentrations is collected immediately pre-dose and at 3 hours after administration of the first daily dose of study drug on the second day of each visit.
The study drug dosing and sample collection times are recorded. If a heparinized venous catheter is used for sample collection in order to avoid repeated needle sticks, at least 2 mL of blood is removed and discarded prior to each sample collection in order to avoid heparin contamination of the sample. All attempts are made to collect the blood samples at, or within ±5 minutes of, the scheduled time. The timing of the blood draw is in relation to the study drug dosing time.
Each sample comprises 2 mL of venous blood drawn into a 5-mL Vacutainer® or equivalent tube with K3-EDTA as the anticoagulant. Immediately after collection, the tube is gently inverted 8 to 10 times to mix the anticoagulant with the blood sample. The tube is stored upright on ice until centrifugation; centrifugation and sample processing are performed within 1 hour of sample collection. The plasma fraction is separated by placing the collection tube into a refrigerated centrifuge (4 to 8° C.) in a horizontal rotor (with a swing-out head) for a minimum of 15 minutes at 1500 to 1800 relative centrifugal force (RCF). The plasma fraction is withdrawn by pipette and divided into 2 polypropylene freezing tubes (with each tube receiving approximately equal aliquots). All sample collection and freezing tubes are clearly labeled in a fashion that identifies the subject, the study period, and the collection date and time. Labels are fixed to freezing tubes in a manner that will prevent the label from becoming detached after freezing. After processing, samples are placed into a freezer at approximately −20° C. (or lower).
Samples are stored for analysis of 3-[5-(2-fluoro-phenyl)-[1,2,4]oxadiazol-3-yl]-benzoic acid at the end of the study using a validated high performance liquid chromatography with tandem mass spectrometry (HPLC/MS-MS) method. Thereafter, samples are retained for potential later analyses.

[3] = Body weight, Phase 2 cystic fibrosis study
Text: as §1, §2

[4] = study entry to end of higher dose treatment
[5] = 10, 10, 20 mg/kg TID, N = 20, mean
[6] = 20, 20, 40 mg/kg TID, N = 11, mean

For `O=C(O)c1cccc(-c2noc(-c3ccccc3F)n2)c1` [3-[5-(2-fluoro-phenyl)-[1,2,4]oxadiazol-3-yl]-benzoic acid], the “Mean FEV1 (percentage of normal for gender, age and height), End of Higher Dose Treatment” value ([1]; end of higher-dose cycle (10, 10, 20 mg/kg TID), study entry 65.8%) was 69.1%, the “Mean FVC (percentage of normal for gender, age and height), End of Higher Dose Treatment” value ([1]; end of higher-dose cycle (10, 10, 20 mg/kg TID), study entry 80.2%) was 85.1% and the “Mean FEV1 (percentage of normal), Change” value [1, 4] was 3.3%. For the same compound, the “Mean FVC (percentage of normal), Change” value [1, 4] was 4.9%, the “Cmin, Day 1” value ([2]; 4, 4, 8 mg/kg TID, N = 6, mean) was 0.5 µg/mL and the “Cmin, Day 28” value ([2]; 4, 4, 8 mg/kg TID, N = 6, mean) was 0.6 µg/mL. The “Cmin, Day 1” value [2, 5] was 3.8 µg/mL, the “Cmin, Day 28” value [2, 5] was 3.4 µg/mL and the “Cmin, Day 1” value [2, 6] was 9.6 µg/mL. For the same compound, the “Cmin, Day 28” value [2, 6] was 6.7 µg/mL, the AUC(0-t) ([2]; 8 mg/kg, 4, 4, 8 mg/kg TID, N = 6, mean, read-out: AUC0-24, Day 1) was 87 µg·h/mL and the AUC(0-t) ([2]; 8 mg/kg, 4, 4, 8 mg/kg TID, N = 6, mean, read-out: AUC0-24, Day 28) was 91 µg·h/mL. The Cmax ([2]; 8 mg/kg, 4, 4, 8 mg/kg TID, N = 6, mean, read-out: Cmax, Day 1) was 10000 ng/mL, the Cmax ([2]; 8 mg/kg, 4, 4, 8 mg/kg TID, N = 6, mean, read-out: Cmax, Day 28) was 11000 ng/mL and the AUC(0-t) ([2]; 20 mg/kg, 10, 10, 20 mg/kg TID, N = 20, mean, read-out: AUC0-24, Day 1) was 291 µg·h/mL. For the same compound, the AUC(0-t) ([2]; 20 mg/kg, 10, 10, 20 mg/kg TID, N = 20, mean, read-out: AUC0-24, Day 28) was 235 µg·h/mL, the Cmax ([2]; 20 mg/kg, 10, 10, 20 mg/kg TID, N = 20, mean, read-out: Cmax, Day 1) was 27000 ng/mL and the Cmax ([2]; 20 mg/kg, 10, 10, 20 mg/kg TID, N = 20, mean, read-out: Cmax, Day 28) was 22000 ng/mL. For the same compound, the AUC(0-t) ([2]; 40 mg/kg, 20, 20, 40 mg/kg TID, N = 11, mean, read-out: AUC0-24, Day 1) was 866 µg·h/mL, the AUC(0-t) ([2]; 40 mg/kg, 20, 20, 40 mg/kg TID, N = 11, mean, read-out: AUC0-24, Day 28) was 490 µg·h/mL and the Cmax ([2]; 40 mg/kg, 20, 20, 40 mg/kg TID, N = 11, mean, read-out: Cmax, Day 1) was 76000 ng/mL. The Cmax ([2]; 40 mg/kg, 20, 20, 40 mg/kg TID, N = 11, mean, read-out: Cmax, Day 28) was 46000 ng/mL, the “Weight, End of Higher Dose Treatment” value ([3]; end of higher-dose cycle (10, 10, 20 mg/kg TID), study entry 58.3 kg) was 59.0 kg and the “Weight, Change” value [3, 4] was 0.7 kg.
